US11247990B1, “Bicyclic fused pyridine compounds as inhibitors of TAM kinases” (ARRAY BIOPHARMA INC., priority 2017, dated 2022)
Structures can show the parent of a compound that is named as a salt.

Experiments:
Conditions in all cases: averaged IC50
[1] = biological target: His-tagged recombinant human AXL cytoplasmic domain (Homo sapiens (Human), UniProt P30530); assay: AXL Enzyme Assay (LanthaScreen Eu Kinase Binding, TR-FRET)
Procedure: Compounds of Formula I were screened for their ability to inhibit AXL kinase using Invitrogen's LanthaScreen™ Eu Kinase Binding technology. […] After a 60-minute incubation at 22° C., the reaction was measured using a PerkinElmer EnVision multimode plate reader via TR-FRET dual wavelength detection, and the percent of control (POC) was calculated using a ratiometric emission factor. […] The POC values are fit to a 4 parameter logistic curve and the IC50 value is point where the curve crosses 50 POC.

[2] = biological target: His-tagged recombinant human MER cytoplasmic domain (Homo sapiens (Human), UniProt Q12866); assay: MER Enzyme Assay (LanthaScreen Eu Kinase Binding, TR-FRET)
How it was run: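 Percent of control, derived from ratiometric TR-FRET emission, was fitted to a 4-parameter logistic curve and IC50 taken at 50 POC. Binding was read after 60 min at 22 °C using Eu-based LanthaScreen technology and recombinant His-tagged MER cytoplasmic domain.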

[3] = biological target: GST-tagged recombinant human TYRO3 kinase domain (Homo sapiens (Human), UniProt Q06418); assay: TYRO3 Enzyme Assay (LanthaScreen Eu Kinase Binding, TR-FRET)
How it was run: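 LanthaScreen Eu binding (tracer displacement) format read by TR-FRET after 60 min at 22 °C. Emission ratio converted to percent of control; IC50 taken where a 4-parameter logistic fit crosses 50 POC.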

Sequence of His-tagged recombinant human AXL cytoplasmic domain (P30530 473-894): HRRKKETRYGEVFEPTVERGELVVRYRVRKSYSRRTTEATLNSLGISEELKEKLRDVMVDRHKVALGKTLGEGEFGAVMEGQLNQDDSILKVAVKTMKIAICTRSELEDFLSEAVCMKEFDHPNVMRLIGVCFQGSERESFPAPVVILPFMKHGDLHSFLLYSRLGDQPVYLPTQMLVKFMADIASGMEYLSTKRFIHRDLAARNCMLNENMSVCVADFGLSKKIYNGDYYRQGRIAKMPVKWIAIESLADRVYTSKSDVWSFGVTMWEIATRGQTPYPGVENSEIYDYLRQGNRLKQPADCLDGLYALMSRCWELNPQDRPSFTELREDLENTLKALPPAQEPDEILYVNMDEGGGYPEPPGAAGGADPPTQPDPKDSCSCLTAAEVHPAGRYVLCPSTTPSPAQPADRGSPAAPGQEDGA
Sequence of His-tagged recombinant human MER cytoplasmic domain (Q12866 527-999): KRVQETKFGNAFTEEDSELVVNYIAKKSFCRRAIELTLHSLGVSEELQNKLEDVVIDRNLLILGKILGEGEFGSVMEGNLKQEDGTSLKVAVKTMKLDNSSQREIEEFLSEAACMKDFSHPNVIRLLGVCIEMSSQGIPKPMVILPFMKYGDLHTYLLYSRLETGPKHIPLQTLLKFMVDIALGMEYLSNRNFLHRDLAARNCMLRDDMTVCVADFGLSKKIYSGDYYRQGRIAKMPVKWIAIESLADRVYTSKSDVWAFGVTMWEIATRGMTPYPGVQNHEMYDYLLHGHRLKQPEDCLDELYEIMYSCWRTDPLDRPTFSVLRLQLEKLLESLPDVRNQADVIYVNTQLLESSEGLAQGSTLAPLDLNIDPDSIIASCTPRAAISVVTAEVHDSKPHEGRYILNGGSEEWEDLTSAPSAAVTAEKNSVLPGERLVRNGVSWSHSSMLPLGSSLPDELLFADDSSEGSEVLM
Sequence of GST-tagged recombinant human TYRO3 kinase domain (Q06418 518-790): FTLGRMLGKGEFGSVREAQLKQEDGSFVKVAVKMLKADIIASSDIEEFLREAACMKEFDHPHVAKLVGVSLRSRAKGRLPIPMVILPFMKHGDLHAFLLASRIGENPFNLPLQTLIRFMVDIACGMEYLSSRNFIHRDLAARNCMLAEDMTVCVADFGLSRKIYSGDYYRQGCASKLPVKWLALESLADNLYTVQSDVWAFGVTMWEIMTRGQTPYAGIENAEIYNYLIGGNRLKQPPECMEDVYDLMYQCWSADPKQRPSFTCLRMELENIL

IC50 [1] | IC50 [2] | IC50 [3] | Compound
< 0.01 µM | < 0.01 µM | < 0.01 µM | CNc1cc2c(cn1)c(-c1cnn(C)c1)nn2[C@H]1CC[C@@H](Oc2cccnc2C(F)(F)F)CC1 [Example 137, N-methyl-3-(1-methyl-1H-pyrazol-4-yl)-1-((1s,4s)-4-((2-(trifluoromethyl)pyridin-3-yl)oxy)cyclohexyl)-1H-pyrazolo[4,3-c]pyridin-6-amine]
< 0.01 µM | < 0.01 µM | < 0.01 µM | CNc1cc2c(cn1)c(-c1cnn(C)c1)nn2[C@H]1CC[C@@H](Oc2cccnc2C#N)CC1 [Example 140, 3-(((1s,4s)-4-(3-(1-methyl-1H-pyrazol-4-yl)-6-(methylamino)-1H-pyrazolo[4,3-c]pyridin-1-yl)cyclohexyl)oxy)picolinonitrile]
< 0.01 µM | < 0.01 µM | < 0.01 µM | CNc1cc2c(cn1)c(-c1cnn(C(C)(C)C#N)c1)nn2[C@H]1CC[C@@H](Oc2cccnc2C(F)(F)F)CC1 [Example 160, 2-methyl-2-(4-(6-(methylamino)-1-((1s,4s)-4-((2-(trifluoromethyl)pyridin-3-yl)oxy)cyclohexyl)-1H-pyrazolo[4,3-c]pyridin-3-yl)-1H-pyrazol-1-yl)propanenitrile]
< 0.01 µM | < 0.01 µM | < 0.01 µM | CNc1cc2c(cn1)c(-c1cnn(C)c1)nn2[C@H]1CC[C@@H](Oc2cn(C)nc2C(F)(F)F)CC1 [Example 162, N-methyl-3-(1-methyl-1H-pyrazol-4-yl)-1-((1s,4s)-4-((1-methyl-3-(trifluoromethyl)-1H-pyrazol-4-yl)oxy)cyclohexyl)-1H-pyrazolo[4,3-c]pyridin-6-amine]
< 0.01 µM | < 0.01 µM | < 0.01 µM | CNc1cc2c(cn1)c(-c1cnn(C(C)(C)C#N)c1)nn2[C@H]1CC[C@@H](Oc2cn(C)nc2C(F)(F)F)CC1 [Example 163, 2-methyl-2-(4-(1-((1s,4s)-4-((1-methyl-3-(trifluoromethyl)-1H-pyrazol-4-yl)oxy)cyclohexyl)-6-(methylamino)-lH-pyrazolo[4,3-c]pyridin-3-yl)-1H-pyrazol-1-yl)propanenitrile]
< 0.01 µM | < 0.01 µM | < 0.01 µM | CCNc1cc2c(cn1)c(-c1cnn(C(C)(C)C#N)c1)nn2[C@H]1CC[C@@H](Oc2cccnc2C(F)(F)F)CC1 [Example 164, 2-(4-(6-(ethylamino)-1-((1s,4s)-4-((2-(trifluoromethyl)pyridin-3-yl)oxy)cyclohexyl)-1H-pyrazolo[4,3-c]pyridin-3-yl)-1H-pyrazol-1-yl)-2-methylpropanenitrile]
< 0.01 µM | < 0.01 µM | 0.01 to 0.1 µM | CNc1cc2c(cn1)c(-c1cnn(C)c1)nn2[C@H]1CC[C@@H](Oc2cccnc2C(C)C)CC1 [Example 165, 1-((1 s,4s)-4-((2-isopropylpyridin-3-yl)oxy)cyclohexyl)-N-methyl(1-methyl-1H-pyrazol-4-yl)-1H-pyrazolo[4,3-c]pyridin-6-amine]
< 0.01 µM | < 0.01 µM | < 0.01 µM | CNc1cc2c(cn1)c(-c1cnn(C)c1)nn2[C@H]1CC[C@@H](Oc2nccnc2C(F)(F)F)CC1 [Example 171, N-methyl-3-(1-methyl-1H-pyrazol-4-yl)-1-((1s,4s)-4-((3-(trifluoromethyl)pyrazin-2-yl)oxy)cyclohexyl)-1H-pyrazolo[4,3-c]pyridin-6-amine]
< 0.01 µM | < 0.01 µM | 0.01 to 0.1 µM | CNc1cc2c(cn1)c(-c1cnn(C)c1)nn2[C@H]1CC[C@@H](Oc2nccc(C(F)(F)F)c2F)CC1 [Example 173, 1-((1s,4s)-4-((3-fluoro-4-(trifluoromethyl)pyridin-2-yl)oxy)cyclohexyl)-N-methyl-3-(1-methyl-1H-pyrazol-4-yl)-1H-pyrazolo[4,3-c]pyridin-6-amine]
< 0.01 µM | < 0.01 µM | 0.01 to 0.1 µM | CNc1cc2c(cn1)c(-c1cnn(C)c1)nn2[C@H]1CC[C@@H](Oc2cc(Cl)cnc2C#N)CC1 [Example 175, 5-chloro-3-(((1s,4s)-4-(3-(1-methyl-1H-pyrazol-4-yl)-6-(methylamino)-1H-pyrazolo[4,3-c]pyridin-1-yl)cyclohexyl)oxy)picolinonitrile]
< 0.01 µM | < 0.01 µM | < 0.01 µM | CCNc1cc2c(cn1)c(-c1cnn(C)c1)nn2[C@H]1CC[C@@H](Oc2cccnc2F)CC1 [Example 183, N-ethyl-1-((1s,4s)-4-((2-fluoropyridin-3-yl)oxy)cyclohexyl)-3-(1-methyl-1H-pyrazol-4-yl)-1H-pyrazolo[4,3-c]pyridin-6-amine]
< 0.01 µM | < 0.01 µM | < 0.01 µM | CCNc1cc2c(cn1)c(-c1cnn(C)c1)nn2[C@H]1CC[C@@H](Oc2cccnc2C(F)(F)F)CC1 [Example 184, N-ethyl-3-(1-methyl-1H-pyrazol-4-yl)-1-((1s,4s)-4-((2-(trifluoromethyl)pyridin-3-yl)oxy)cyclohexyl)-1H-pyrazolo[4,3-c]pyridin-6-amine]
< 0.01 µM | < 0.01 µM | < 0.01 µM | CCNc1cc2c(cn1)c(-c1cnn(C)c1)nn2[C@H]1CC[C@@H](Oc2cccnc2C#N)CC1 [Example 188, 3-(((1s,4s)-4-(6-(ethylamino)-3-(1-methyl-1H-pyrazol-4-yl)-1H-pyrazolo[4,3-c]pyridin-1-yl)cyclohexyl)oxy)picolinonitrile]
< 0.01 µM | < 0.01 µM | 0.01 to 0.1 µM | CCNc1cc2c(cn1)c(-c1cnn(C)c1)nn2[C@H]1CC[C@@H](Oc2nccnc2CC)CC1 [Example 190, N-ethyl-1-((1s,4s)-4-((3-ethylpyrazin-2-yl)oxy)cyclohexyl)-3-(1-methyl-1H-pyrazol-4-yl)-1H-pyrazolo[4,3-c]pyridin-6-amine]
< 0.01 µM | < 0.01 µM | < 0.01 µM | CCNc1cc2c(cn1)c(-c1cnn(C)c1)nn2[C@H]1CC[C@@H](Oc2nccnc2C(F)(F)F)CC1 [Example 194, N-ethyl-3-(1-methyl-1H-pyrazol-4-yl)-1-((1s,4s)-4-((3-(trifluoromethyl)pyrazin-2-yl)oxy)cyclohexyl)-1H-pyrazolo[4,3-c]pyridin-6-amine]
< 0.01 µM | < 0.01 µM | 0.01 to 0.1 µM | CCNc1cc2c(cn1)c(-c1cnn(C)c1)nn2[C@H]1CC[C@@H](Oc2nccc(C(F)(F)F)c2F)CC1 [Example 198, N-ethyl-1-((1s,4s)-4-((3-fluoro-4-(trifluoromethyl)pyridin-2-yl)oxy)cyclohexyl)-3-(1-methyl-1H-pyrazol-4-yl)-1H-pyrazolo[4,3-c]pyridin-6-amine]
< 0.01 µM | < 0.01 µM | < 0.01 µM | C#Cc1ncccc1OC1CCC(n2nc(-c3cnn(C)c3)c3cnc(NCC)cc32)CC1 (stereo not drawn) [Example 199, N-ethyl-1-((1s,4s)-4-((2-ethynylpyridin-3-yl)oxy)cyclohexyl)-3-(1-methyl-1H-pyrazol-4-yl)-1H-pyrazolo[4,3-c]pyridin-6-amine]
< 0.01 µM | < 0.01 µM | < 0.01 µM | CNc1cc2c(cn1)c(-c1cnn(C[C@H](O)CO)c1)nn2[C@H]1CC[C@@H](Oc2cccnc2C(F)(F)F)CC1 [Example 204, (S)-3-(4-(6-(methylamino)-1-((1s,4R)-4-((2-(trifluoromethyl)pyridin-3-yl)oxy)cyclohexyl)-1H-pyrazolo[4,3-c]pyridin-3-yl)-1H-pyrazol-1-yl)propane-1,2-diol hydrochloride]
< 0.01 µM | < 0.01 µM | < 0.01 µM | CCNc1cc2c(cn1)c(-c1cnn(CC(CO)CO)c1)nn2[C@H]1CC[C@@H](Oc2cccnc2C(F)(F)F)CC1 [Example 205, 2-((4-(6-(ethylamino)-1-((1s,4s)-4-((2-(trifluoromethyl)pyridin-3-yl)oxy)cyclohexyl)-1H-pyrazolo[4,3-c]pyridin-3-yl)-1H-pyrazol-1-yl)methyl)propane-1,3-diol]
< 0.01 µM | < 0.01 µM | < 0.01 µM | CNc1cc2c(cn1)c(-c1cnn(C[C@@H](O)CO)c1)nn2[C@H]1CC[C@@H](Oc2cccnc2C(F)(F)F)CC1 [Example 206, ®-3-(4-(6-(methylamino)-1-((1s,4s)-4-((2-(trifluoromethyl)pyridin-3-yl)oxy)cyclohexyl)-1H-pyrazolo[4,3-c]pyridin-3-yl)-1H-pyrazol-1-yl)propane-1,2-diol]
< 0.01 µM | < 0.01 µM | < 0.01 µM | CCNc1cc2c(cn1)c(-c1cnn(C(CO)CO)c1)nn2[C@H]1CC[C@@H](Oc2cccnc2C(F)(F)F)CC1 [Example 207, 2-(4-(6-(ethylamino)-1-((1s,4s)-4-((2-(trifluoromethyl)pyridin-3-yl)oxy)cyclohexyl)-1H-pyrazolo[4,3-c]pyridin-3-yl)-1H-pyrazol-1-yl)propane-1,3-diol]
< 0.01 µM | < 0.01 µM | < 0.01 µM | CCNc1cc2c(cn1)c(-c1cnn(C[C@H](O)CO)c1)nn2[C@H]1CC[C@@H](Oc2cccnc2C(F)(F)F)CC1 [Example 208, (S)-3-(4-(6-(ethylamino)-1-((1s,4R)-4-((2-(trifluoromethyl)pyridin-3-yl)oxy)cyclohexyl)-1H-pyrazolo[4,3-c]pyridin-3-yl)-1H-pyrazol-1-yl)propane-1,2-diol]
